The subject of one experiment is shrews (Suncus murinus). The experiment in a line: Food intake and body weight. Format: in vivo. To be noted: shrew, albiglutide 0.5 and 5 mg/kg i.p.
Experiment [1] deals with human GLP-1 receptor (GLP-1R) (human) (UniProt P43220).
Sequence of UniProt P43220 (P43220 24-463): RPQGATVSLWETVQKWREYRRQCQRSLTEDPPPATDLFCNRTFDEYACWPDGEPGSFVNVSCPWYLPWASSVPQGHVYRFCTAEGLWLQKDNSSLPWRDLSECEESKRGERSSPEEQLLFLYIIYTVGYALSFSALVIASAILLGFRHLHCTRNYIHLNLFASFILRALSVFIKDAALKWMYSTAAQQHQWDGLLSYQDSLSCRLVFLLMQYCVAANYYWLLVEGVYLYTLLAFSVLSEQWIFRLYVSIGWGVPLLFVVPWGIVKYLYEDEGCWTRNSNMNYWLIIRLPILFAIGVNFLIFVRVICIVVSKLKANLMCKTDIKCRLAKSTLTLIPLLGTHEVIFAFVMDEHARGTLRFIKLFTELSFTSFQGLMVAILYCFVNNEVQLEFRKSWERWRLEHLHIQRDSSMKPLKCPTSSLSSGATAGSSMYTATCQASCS

With albiglutide, the “anorexia and body-weight loss” value in the experiment on shrews (Suncus murinus) was “did not cause anorexia and body-weight loss”.

In turn, HC-Cbi-Ex4 (complex) gave an EC50 of agonism at the GLP-1R in experiment [1] of 3 nM.

Source of the values: paper PMC7376604 (Cell reports, 2020).
